Test results published in ChEMBL document CHEMBL3046164, “A facile synthesis of some 3-cyano-1,4,6-trisubstituted-2(1H)-pyridinones and their biological evaluation as anticancer agents” (2011).
“And” between values parts separate entries of the source, which are not always exact repeats. Identical values can stand only once.

How the values were obtained:
Format in all cases: functional
PC-3 = test: Growth inhibition of Homo sapiens (human) PC3 cells at 10 uM after 48 hr by SRB assay; details: PC-3, 48 h, read-out: GI
T47D [1] = test: Growth inhibition of Homo sapiens (human) T47D cells at 10 uM after 48 hr by SRB assay; details: read-out: GI
SF-539 = test: Cytotoxicity against Homo sapiens (human) SF539 cells after 48 hr by SRB assay; details: SF-539, 48 h
HOP-62 [2] = test: Cytotoxicity against Homo sapiens (human) HOP62 cells after 48 hr by SRB assay; details: HOP-62, 48 h
HCC 2998 [3] = test: Cytotoxicity against Homo sapiens (human) HCC2998 cells after 48 hr by SRB assay; details: HCC 2998, 48 h
HL-60(TB) [4] = test: Cytotoxicity against Homo sapiens (human) HL-60(TB) cells after 48 hr by SRB assay; details: HL-60, 48 h
K562 = test: Growth inhibition of Homo sapiens (human) K562 cells at 10 uM after 48 hr by SRB assay; details: K562, 48 h, read-out: GI
IGROV-1 = test: Cytotoxicity against Homo sapiens (human) IGROV1 cells after 48 hr by SRB assay; details: IGROV-1, 48 h
RPMI-8226 [5] = test: Cytotoxicity against Homo sapiens (human) RPMI8226 cells after 48 hr by SRB assay
BT-549 = test: Cytotoxicity against Homo sapiens (human) BT549 cells after 48 hr by SRB assay; details: BT-549, 48 h
HOP-92 [6] = test: Growth inhibition of Homo sapiens (human) HOP92 cells at 10 uM after 48 hr by SRB assay; details: HOP-92, 48 h, read-out: GI
SR = test: Cytotoxicity against Homo sapiens (human) SR cells after 48 hr by SRB assay
EKVX [7] = test: Cytotoxicity against Homo sapiens (human) EKVX cells after 48 hr by SRB assay
SNB-75 [8] = test: Growth inhibition of Homo sapiens (human) SNB75 cells at 10 uM after 48 hr by SRB assay; details: SNB-75, 48 h, read-out: GI
OVCAR-3 = test: Cytotoxicity against Homo sapiens (human) OVCAR3 cells after 48 hr by SRB assay; details: OVCAR-3, 48 h
A498 [9] = test: Cytotoxicity against Homo sapiens (human) A498 cells after 48 hr by SRB assay; details: A498, 48 h
SNB-75 [10] = test: Cytotoxicity against Homo sapiens (human) SNB75 cells after 48 hr by SRB assay; details: SNB-75, 48 h
UACC-62 = test: Cytotoxicity against Homo sapiens (human) UACC62 cells after 48 hr by SRB assay; details: UACC-62, 48 h
T47D [11] = test: Cytotoxicity against Homo sapiens (human) T47D cells after 48 hr by SRB assay
MCF7 = test: Growth inhibition of Homo sapiens (human) MCF7 cells at 10 uM after 48 hr by SRB assay; details: MCF7, 48 h, read-out: GI
CCRF-CEM [12] = test: Growth inhibition of Homo sapiens (human) CCRF-CEM cells at 10 uM after 48 hr by SRB assay; details: read-out: GI
SF-268 = test: Cytotoxicity against Homo sapiens (human) SF268 cells after 48 hr by SRB assay; details: SF-268, 48 h
MDA-MB-231 = test: Cytotoxicity against Homo sapiens (human) MDA-MB-231 cells after 48 hr by SRB assay; details: MDA-MB-231, 48 h
OVCAR-4 = test: Cytotoxicity against Homo sapiens (human) OVCAR4 cells after 48 hr by SRB assay; details: OVCAR-4, 48 h
UO-31 [13] = test: Cytotoxicity against Homo sapiens (human) UO31 cells after 48 hr by SRB assay; details: UO-31, 48 h
HOP-92 [14] = test: Cytotoxicity against Homo sapiens (human) HOP92 cells after 48 hr by SRB assay; details: HOP-92, 48 h
CCRF-CEM [15] = test: Cytotoxicity against Homo sapiens (human) CCRF-CEM cells after 48 hr by SRB assay
A549 = test: Growth inhibition of Homo sapiens (human) A549 cells at 10 uM after 48 hr by SRB assay; details: A549, 48 h, read-out: GI
CAKI-1 = test: Growth inhibition of Homo sapiens (human) CAKI-1 cells at 10 uM after 48 hr by SRB assay; details: CAKI-1, 48 h, read-out: GI
NCI-H460 = test: Growth inhibition of Homo sapiens (human) NCI-H460 cells at 10 uM after 48 hr by SRB assay; details: NCI-H460, 48 h, read-out: GI
RPMI-8226 [16] = test: Growth inhibition of Homo sapiens (human) RPMI8226 cells at 10 uM after 48 hr by SRB assay; details: RPMI-8226, 48 h, read-out: GI
MDA-MB-435 = test: Growth inhibition of Homo sapiens (human) MDA-MB-435 cells at 10 uM after 48 hr by SRB assay; details: MDA-MB-435, 48 h, read-out: GI
HL-60(TB) [17] = test: Growth inhibition of Homo sapiens (human) HL-60(TB) cells at 10 uM after 48 hr by SRB assay; details: HL-60, 48 h, read-out: GI
COLO 205 = test: Growth inhibition of Homo sapiens (human) COLO205 cells at 10 uM after 48 hr by SRB assay; details: COLO 205, 48 h, read-out: GI
U-251 = test: Growth inhibition of Homo sapiens (human) U251 cells at 10 uM after 48 hr by SRB assay; details: U-251, 48 h, read-out: GI
LOX IMVI = test: Growth inhibition of Homo sapiens (human) LOXIMVI cells at 10 uM after 48 hr by SRB assay; details: read-out: GI
HCC 2998 [18] = test: Growth inhibition of Homo sapiens (human) HCC2998 cells at 10 uM after 48 hr by SRB assay; details: HCC 2998, 48 h, read-out: GI
786-0 = test: Growth inhibition of Homo sapiens (human) 786-0 cells at 10 uM after 48 hr by SRB assay; details: 786-0, 48 h, read-out: GI
A498 [19] = test: Growth inhibition of Homo sapiens (human) A498 cells at 10 uM after 48 hr by SRB assay; details: A498, 48 h, read-out: GI
SK-MEL-5 = test: Growth inhibition of Homo sapiens (human) SK-MEL-5 cells at 10 uM after 48 hr by SRB assay; details: SK-MEL-5, 48 h, read-out: GI
SF-295 = test: Growth inhibition of Homo sapiens (human) SF295 cells at 10 uM after 48 hr by SRB assay; details: SF-295, 48 h, read-out: GI
EKVX [20] = test: Growth inhibition of Homo sapiens (human) EKVX cells at 10 uM after 48 hr by SRB assay; details: read-out: GI
HOP-62 [21] = test: Growth inhibition of Homo sapiens (human) HOP62 cells at 10 uM after 48 hr by SRB assay; details: HOP-62, 48 h, read-out: GI
M14 = test: Growth inhibition of Homo sapiens (human) M14 cells at 10 uM after 48 hr by SRB assay; details: M14, 48 h, read-out: GI
OVCAR-5 = test: Growth inhibition of Homo sapiens (human) OVCAR5 cells at 10 uM after 48 hr by SRB assay; details: OVCAR-5, 48 h, read-out: GI
UO-31 [22] = test: Growth inhibition of Homo sapiens (human) UO31 cells at 10 uM after 48 hr by SRB assay; details: UO-31, 48 h, read-out: GI

`COc1ccc(-c2cc(-c3cccn3C)c(C#N)c3nnc(C)n23)cc1OC` showed an inhibition of growth at 10 µM (PC-3) of 23.8%, an inhibition of growth at 10 µM (T47D [1]) of 34.3% and a GI50 (SF-539) greater than 100 µM. The GI50 (HOP-62 [2]) was 37.1 µM, the GI50 (HCC 2998 [3]) was greater than 100 µM and the GI50 (HL-60(TB) [4]) was greater than 100 µM. For the same compound, the inhibition of growth at 10 µM (K562) was 41.5%, the GI50 (IGROV-1) was greater than 100 µM and the GI50 (RPMI-8226 [5]) was 45.7 µM and 19 µM. The GI50 (BT-549) was greater than 100 µM, the inhibition of growth at 10 µM (HOP-92 [6]) was 48% and the GI50 (SR) was greater than 100 µM. For the same compound, the GI50 (EKVX [7]) was 0.01 µM, the TGI (EKVX [7]) was 0.03 µM and the inhibition of growth at 10 µM (SNB-75 [8]) was 25.8%. The GI50 (OVCAR-3) was greater than 100 µM, the GI50 (A498 [9]) was 25.7 µM and the GI50 (SNB-75 [10]) was 44.7 µM. The GI50 (UACC-62) was 95.5 µM, the GI50 (T47D [11]) was greater than 100 µM and the inhibition of growth at 10 µM (MCF7) was 29%. For the same compound, the inhibition of growth at 10 µM (CCRF-CEM [12]) was 39.2%, the GI50 (SF-268) was greater than 100 µM and the GI50 (MDA-MB-231) was greater than 100 µM. For the same compound, the GI50 (OVCAR-4) was greater than 100 µM, the GI50 (UO-31 [13]) was greater than 100 µM and the GI50 (HOP-92 [14]) was greater than 100 µM. The GI50 (CCRF-CEM [15]) was greater than 100 µM.
In the case of `Cn1cccc1-c1cc(-c2ccc(Br)cc2)n(C(=S)Nc2ccc(F)cc2)c(=O)c1C#N`, the inhibition of growth at 10 µM (A549) is reported as 47.8%, the inhibition of growth at 10 µM (CAKI-1) is reported as 30.3% and the GI50 (SF-539) is reported as greater than 100 µM. The GI50 (HOP-62 [2]) was 37.1 µM, the GI50 (HCC 2998 [3]) was greater than 100 µM and the inhibition of growth at 10 µM (NCI-H460) was 31.6%. The GI50 (HL-60(TB) [4]) was 14.5 µM, the inhibition of growth at 10 µM (RPMI-8226 [16]) was 59.2% and the inhibition of growth at 10 µM (K562) was 60%. It also gave an inhibition of growth at 10 µM (MDA-MB-435) of 35.1%, a GI50 (IGROV-1) of 22.9 µM and an inhibition of growth at 10 µM (HL-60(TB) [17]) of 82.3%. The GI50 (RPMI-8226 [5]; Homo sapiens, RPMI-8226, 48 h) was greater than 100 µM, the inhibition of growth at 10 µM (COLO 205) was 45.6% and the inhibition of growth at 10 µM (U-251) was 26.3%. It also gave a GI50 (BT-549) greater than 100 µM, an inhibition of growth at 10 µM (LOX IMVI) of 23% and an inhibition of growth at 10 µM (HOP-92 [6]) of 39.6%. For the same compound, the GI50 (SR) was greater than 100 µM, the GI50 (EKVX [7]) was 0.01 µM and the TGI (EKVX [7]) was 0.03 µM. For the same compound, the inhibition of growth at 10 µM (SNB-75 [8]) was 42.7%, the GI50 (OVCAR-3) was greater than 100 µM and the GI50 (A498 [9]) was 17.8 µM. For the same compound, the inhibition of growth at 10 µM (HCC 2998 [18]) was 27.6%, the GI50 (SNB-75 [10]) was 38 µM and the GI50 (UACC-62) was 72.4 µM. For the same compound, the GI50 (T47D [11]) was greater than 100 µM, the inhibition of growth at 10 µM (786-0) was 28.8% and the inhibition of growth at 10 µM (A498 [19]) was 27.6%. The inhibition of growth at 10 µM (SK-MEL-5) was 33.5%, the inhibition of growth at 10 µM (SF-295) was 40.2% and the inhibition of growth at 10 µM (EKVX [20]) was 29.7%. It also gave an inhibition of growth at 10 µM (CCRF-CEM [12]) of 48.3%, a GI50 (SF-268) of 20.4 µM and an inhibition of growth at 10 µM (HOP-62 [21]) of 34.5%. It also gave a GI50 (MDA-MB-231) greater than 100 µM, a GI50 (OVCAR-4) greater than 100 µM and a GI50 (UO-31 [13]) of 13.8 µM. It also gave an LC50 (UO-31 [13]) of 54.9 µM, a TGI (UO-31 [13]) of 27.5 µM and a GI50 (HOP-92 [14]) greater than 100 µM. For the same compound, the GI50 (CCRF-CEM [15]) was greater than 100 µM and the inhibition of growth at 10 µM (M14) was 29.1%.
Compound `Cn1cccc1-c1cc(-c2ccc(Br)cc2)n(C=O)c(=O)c1C#N` has an inhibition of growth at 10 µM (K562) of 54.8%, an inhibition of growth at 10 µM (HOP-92 [6]) of 24.2% and an inhibition of growth at 10 µM (OVCAR-5) of 26.9%. It also gave an inhibition of growth at 10 µM (UO-31 [22]) of 29.7%.
